Values of other authors as cited in patent publication US12599598B2, “Osmotic dosage forms comprising deutetrabenazine and methods of use thereof” (Auspex Pharmaceuticals, Inc., priority 2020, dated 2026).

Settings: in vivo

**Q.** Which “half-life of its active metabolites, relative to tetrabenazine” value does the source give for `[2H]C([2H])([2H])Oc1cc2c(cc1OC([2H])([2H])[2H])[C@H]1CC(=O)[C@H](CC(C)C)CN1CC2` [Deutetrabenazine, (RR,SS)-1,3,4,6,7,11b-hexahydro-9,10-di(methoxy-d3)-3-(2-methylpropyl)-2H-benzo[a]quinolizin-2-one] here?
**A.** increased half-life
